Measured values: patent publication US6593480B2 (Abbott Laboratories, priority 1999, dated 2003)

Biological target: T1, Human glucocorticoid receptors (Homo sapiens, UniProt P04150)
T1 construct: made in house; host or cells: Sf9 insect cells, recombinant baculovirus (BAC-TO-BAC)
T1 sequence (P04150 1-777): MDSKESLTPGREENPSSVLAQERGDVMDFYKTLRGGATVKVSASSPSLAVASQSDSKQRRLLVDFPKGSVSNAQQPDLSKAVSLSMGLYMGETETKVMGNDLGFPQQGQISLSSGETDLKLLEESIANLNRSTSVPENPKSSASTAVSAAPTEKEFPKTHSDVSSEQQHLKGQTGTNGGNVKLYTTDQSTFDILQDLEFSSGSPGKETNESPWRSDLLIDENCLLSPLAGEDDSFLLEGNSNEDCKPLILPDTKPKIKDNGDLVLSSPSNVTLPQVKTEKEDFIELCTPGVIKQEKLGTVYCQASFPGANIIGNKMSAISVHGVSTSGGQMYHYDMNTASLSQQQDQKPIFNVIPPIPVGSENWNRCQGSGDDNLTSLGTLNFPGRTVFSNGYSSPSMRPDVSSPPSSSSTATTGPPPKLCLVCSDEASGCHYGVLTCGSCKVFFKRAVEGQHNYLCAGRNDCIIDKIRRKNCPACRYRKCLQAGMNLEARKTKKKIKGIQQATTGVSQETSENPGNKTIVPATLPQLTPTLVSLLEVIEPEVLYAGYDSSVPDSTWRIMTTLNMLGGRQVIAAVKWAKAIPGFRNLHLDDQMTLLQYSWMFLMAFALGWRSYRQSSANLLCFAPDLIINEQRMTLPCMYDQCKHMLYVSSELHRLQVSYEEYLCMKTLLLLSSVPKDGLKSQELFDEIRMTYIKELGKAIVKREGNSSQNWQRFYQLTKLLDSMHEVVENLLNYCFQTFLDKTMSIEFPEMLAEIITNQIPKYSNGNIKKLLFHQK
Assay: Radioligand filter binding assay, displacement of 3(H)-dexamethasone from human glucocorticoid receptor cytosol
Conditions: 1.7 μM test compound, inhibition of 3(H)-dex binding to hGR; for inhibition at 1.7 µM: read-out: GR BINDING (% Inhibition @ 1.7 μM)

SMILES	inhibition at 1.7 µM [%]	GR BINDING (% Inhibition @ 1.7 μM) [%]
COc1cccc2c1-c1ccc(CCN)cc1C(c1ccccc1)O2 (centres unmarked) [Example 19, (1-methoxy-6-phenyl-6H-dibenzo(b,d)pyran-8-yl)ethylamine]	66	–
COc1cccc2c1-c1ccc(NCC3CC3)cc1C(c1ccccc1)O2 (centres unmarked) [Example 20, (1-methoxy-6-phenyl-6H-dibenzo(b,d)pyran-8-yl)cyclopropylmethylamine]	54.4	–
COc1cccc2c1-c1ccc(NS(C)(=O)=O)cc1[C@@H](c1ccccc1)O2 [Example 23, 6R-(1-methoxy-6-phenyl-6H-dibenzo(b,d)pyran-8-yl)methanesulfonamide]	–	36.9
COCCNC(=O)c1cccc(C2Oc3cccc(OC)c3-c3ccc(NS(C)(=O)=O)cc32)c1 (centres unmarked) [Example 64, (1-methoxy-6-(3-(2-methoxyethyl)aminocarbonyl)phenyl-6H-dibenzo(b,d)pyran-8-yl)-methanesulfonamide]	–	44.3
COc1cc(C)cc2c1-c1ccc(NS(C)(=O)=O)cc1C(c1ccccc1)O2 (centres unmarked) [Example 67, (1-methoxy-3-methyl-6-phenyl-6H-dibenzo(b,d)pyran-8-yl)methanesulfonamide]	49.3	–
COc1cccc2c1-c1ccc(CS(N)(=O)=O)cc1C(C1CCCCC1=O)O2 (centres unmarked) [Example 72, (1-methoxy-6-(2-(1-oxocyclohexyl))-6H-dibenzo(b,d)pyran-8-yl)methanesulfonamide]	–	58.8
C=CCOc1cccc2c1-c1ccc(NS(C)(=O)=O)cc1C(c1ccccc1)O2 (centres unmarked) [Example 78, N-[1-(allyloxy)-6-phenyl-6H-benzo[c]chromen-8-yl]methanesulfonamide]	77.9	–
COc1cccc2c1-c1ccc(NS(C)(=O)=O)cc1C(/C=C/c1ccccc1)O2 (centres unmarked) [Example 89, N-{1-methoxy-6-[(E)-2-phenylethenyl]-6H-benzo[c]chromen-8-yl}methanesulfonamide]	86.1	–
COc1cccc2c1-c1ccc(NS(C)(=O)=O)cc1C(C#N)O2 (centres unmarked) [Example 90, N-(6-cyano-1-methoxy-6H-benzo[c]chromen-8-yl)methanesulfonamide]	55.1	–
CS(=O)(=O)Nc1ccc2c(c1)C(c1ccccc1)Oc1cccc(CO)c1-2 (centres unmarked) [Example 104, N-[1-(hydroxymethyl)-6-phenyl-6H-benzo[c]chromen-8-yl]methanesulfonamide]	86.8	–
COc1cccc2c1-c1ccc(NS(C)(=O)=O)cc1C(c1cccc(N(C)C(C)=O)c1)O2 (centres unmarked) [Example 110, N-(3-{1-methoxy-8-[(methylsulfonyl)amino]-6H-benzo[c]chromen-6-yl}phenyl)-N-methylacetamide]	74.8	–
C=CCCCc1cccc(C2Oc3cccc(OC)c3-c3ccc(NS(C)(=O)=O)cc32)c1 (centres unmarked) [Example 111, N-{1-nethoxy-6-[3-(4-pentenyl)phenyl]-6H-benzo[c]chromen-8-yl}methanesulfonamide]	–	87.4
COc1cccc2c1-c1ccc(NS(C)(=O)=O)cc1C(c1cccc(CCCCC#N)c1)O2 (centres unmarked) [Example 113, N-{6-[3-(4-cyanobutyl)phenyl]-1-methoxy-6H-benzo[c]chromen-8-yl}methanesulfonamide]	87.7	–
CCOC(=O)CCCc1cccc(C2Oc3cccc(OC(F)F)c3-c3ccc(NS(C)(=O)=O)cc32)c1 (centres unmarked) [Example 115, ethyl 4-(3-{1-(difluoromethoxy)-8-[(methylsulfonyl)amino]-6H-benzo[c]chromen-6-yl}phenyl)butanoate]	83.5	–
CS(=O)(=O)Nc1ccc2c(c1)C(c1cccc(CCCC(=O)O)c1)Oc1cccc(OC(F)F)c1-2 (centres unmarked) [Example 121, 4-(3-{1-(difluoromethoxy)-8-[(methylsulfonyl)amino]-6H-benzo[c]chromen-6-yl}phenyl)butanoic acid]	76.6	–
C[Si](C)(C)CCCc1cccc(C2Oc3cccc(OC(F)F)c3-c3ccc(NS(C)(=O)=O)cc32)c1 (centres unmarked) [Example 134, N-(1-(difluoromethoxy)-6-{3-[3-(trimethylsilyl)propyl]phenyl}-6H-benzo[c]chromen-8-yl)methanesulfonamide]	88.8	–
CCOC(=O)C(C)CCCc1cccc(C2Oc3cccc(OC(F)F)c3-c3ccc(NS(C)(=O)=O)cc32)c1 (centres unmarked) [Example 135, ethyl 5-(3-{1-(difluoromethoxy)-8-[(methylsulfonyl)amino]-6H-benzo[c]chromen-6-yl}phenyl)-2-methylpentanoate]	83.7	–
COc1cccc2c1-c1ccc(NS(C)(=O)=O)cc1C(c1cccc(Oc3ccc(C(C)=O)cc3)c1)O2 (centres unmarked) [Example 140, N-{6-[3-(4-acetylphenoxy)phenyl]-1-methoxy-6H-benzo[c]chromen-8-yl}methanesulfonamide]	84.1	–
COCCCCCCc1cccc(C2Oc3cccc(OC(F)F)c3-c3ccc(NS(C)(=O)=O)cc32)c1 (centres unmarked) [Example 141, N-{1-(difluoromethoxy)-6-[3-(6-methoxyhexyl)phenyl]-6H-benzo[c]chromen-8-yl}methanesulfonamide]	93.6	–

Further lines, results first:

inhibition at 1.7 µM [%]	GR BINDING (% Inhibition @ 1.7 μM) [%]	SMILES
87.9	–	COc1cccc2c1-c1ccc(NC(=O)C(F)(F)F)cc1C(c1ccccc1)O2 (centres unmarked) [Example 22, (1-methoxy-6-phenyl-6H-dibenzo(b,d)pyran-8-yl)trifluoroacetamide]
55	–	CCCN(C)c1ccc(C2Oc3cccc(OC(F)F)c3-c3ccc(N)c(Br)c32)cc1 (centres unmarked) [Example 29, (1-difluoromethoxy-6-(4-(N-propyl-N-methylamino)phenyl)-7-bromo-6H-dibenzo(b,d)pyran-8-yl)-amine]
–	81.6	COc1cccc2c1-c1ccc(NS(C)(=O)=O)cc1C(c1cccc(O)c1)O2 (centres unmarked) [Example 34, (1-methoxy-6-(3-hydroxy)phenyl-6H-dibenzo(b,d)pyran-8-yl)-methanesulfonamide]
58.9	–	CC(=O)c1cccc2c1-c1ccc(NS(C)(=O)=O)cc1C(c1ccccc1)O2 (centres unmarked) [Example 38]
84.6	–	CCOC(=O)CCC1Oc2cccc(OC)c2-c2ccc(NS(C)(=O)=O)cc21 (centres unmarked) [Example 46]
75.1	–	COc1cccc2c1-c1ccc(NS(C)(=O)=O)cc1C(Cc1cccc(C#N)c1)O2 (centres unmarked) [Example 49]
66.1	–	CCOC(=O)CCCCCC1Oc2cccc(OC)c2-c2ccc(NS(C)(=O)=O)cc21 (centres unmarked) [Example 79, ethyl 6-{1-methoxy-8-[(methylsulfonyl)amino]-6H-benzo[c]chromen-6-yl}hexanoate]
81.6	–	COc1cccc2c1-c1ccc(NS(C)(=O)=O)cc1C(Cc1cc(F)cc(F)c1)O2 (centres unmarked) [Example 85, N-[6-(3,5-difluorobenzyl)-1-methoxy-6H-benzo[c]chromen-8-yl]methanesulfonamide]
79.6	–	CCOC(=O)/C=C/COc1cccc(C2Oc3cccc(OC)c3-c3ccc(NS(C)(=O)=O)cc32)c1 (centres unmarked) [Example 94, ethyl (2E)-4-(3-{1-methoxy-8-[(methylsulfonyl)amino]-6H-benzo[c]chromen-6-yl}phenoxy)-2-butenoate]
91.3	–	COc1cccc2c1-c1ccc(NS(C)(=O)=O)cc1C(c1ccc(/C=C/c3ccccc3)s1)O2 (centres unmarked) [Example 101, N-(1-methoxy-6-{5-[(E)-2-phenylethenyl]-2-thienyl}-6H-benzo[c]chromen-8-yl)methanesulfonamide]
83.5	–	C=CCOc1ccc2c(c1OC)-c1ccc(NS(C)(=O)=O)cc1C(c1ccccc1)O2 (centres unmarked) [Example 105, N-[2-(allyloxy)-1-methoxy-6-phenyl-6H-benzo[c]chromen-8-yl]methanesulfonamide]
42.7	–	COCCOCOc1ccc2c(c1OC)-c1ccc(NS(C)(=O)=O)cc1C(c1ccccc1)O2 (centres unmarked) [Example 106, N-{1-methoxy-2-[(2-methoxyethoxy)methoxy]-6-phenyl-6H-benzo[c]chromen-8-yl}methanesulfonamide]
91.7	–	COc1cccc2c1-c1ccc(NS(C)(=O)=O)cc1C(c1cccc(CCCC#N)c1)O2 (centres unmarked) [Example 112, N-{6-[3-(3-cyanopropyl)phenyl]-1-methoxy-6H-benzo[c]chromen-8-yl}methanesulfonamide]
63.8	–	COc1cccc2c1-c1ccc(NS(C)(=O)=O)cc1C(c1cccc(-c3ccc(C(=O)O)cc3)c1)O2 (centres unmarked) [Example 122, 3′-{1-methoxy-8-[(methylsulfonyl)amino]-6H-benzo[c]chromen-6-yl}[1,1′-biphenyl]-4-carboxylic acid]
78.2	–	COc1cccc2c1-c1ccc(NS(C)(=O)=O)cc1C(c1cccc(CCCC(=O)N3CCCCC3)c1)O2 (centres unmarked) [Example 142, N-(1-methoxy-6-{3-[4-oxo-4-(1-piperidinyl)butyl]phenyl}-6H-benzo[c]chromen-8-yl)methanesulfonamide]
82.7	–	COc1ccc(S(=O)(=O)N(C)c2cccc(C3Oc4cccc(OC)c4-c4ccc(NS(C)(=O)=O)cc43)c2)cc1 (centres unmarked) [Example 148, 4-methoxy-N-(3-{1-methoxy-8-[(methylsulfonyl)amino]-6H-benzo[c]chromen-6-yl}phenyl)-N-methylbenzenesulfonamide]
